Reference: ChEMBL document CHEMBL4507274 (2021)

Assays:
[1] = target: Calcium/calmodulin-dependent protein kinase type II subunit gamma (Rattus norvegicus) (UniProt P11730); experiment: CaMKII (r) Upstate kinase activity assay; settings: Compound concentration 10.0 uM
[2] = target: Tyrosine-protein kinase Fes/Fps (Homo sapiens) (UniProt P07332); experiment: Fes (h) Upstate kinase activity assay; settings: Compound concentration 10.0 uM
[3] = target: Macrophage colony-stimulating factor 1 receptor (Homo sapiens) (UniProt P07333); experiment: Fms (h) Upstate kinase activity assay; settings: Compound concentration 10.0 uM
[4] = target: Tyrosine-protein kinase Lck (Homo sapiens) (UniProt P06239); experiment: Lck (h) Upstate kinase activity assay; settings: Compound concentration 10.0 uM
[5] = target: MAP kinase-activated protein kinase 2 (Homo sapiens) (UniProt P49137); experiment: MAPKAP-K2 (h) Upstate kinase activity assay; settings: Compound concentration 10.0 uM
[6] = target: T1, Serine/threonine-protein kinase Nek2 (Homo sapiens) (UniProt P51955); experiment: NEK2 (h) Upstate kinase activity assay; settings: Compound concentration 10.0 uM
T1 sequence (whole entry): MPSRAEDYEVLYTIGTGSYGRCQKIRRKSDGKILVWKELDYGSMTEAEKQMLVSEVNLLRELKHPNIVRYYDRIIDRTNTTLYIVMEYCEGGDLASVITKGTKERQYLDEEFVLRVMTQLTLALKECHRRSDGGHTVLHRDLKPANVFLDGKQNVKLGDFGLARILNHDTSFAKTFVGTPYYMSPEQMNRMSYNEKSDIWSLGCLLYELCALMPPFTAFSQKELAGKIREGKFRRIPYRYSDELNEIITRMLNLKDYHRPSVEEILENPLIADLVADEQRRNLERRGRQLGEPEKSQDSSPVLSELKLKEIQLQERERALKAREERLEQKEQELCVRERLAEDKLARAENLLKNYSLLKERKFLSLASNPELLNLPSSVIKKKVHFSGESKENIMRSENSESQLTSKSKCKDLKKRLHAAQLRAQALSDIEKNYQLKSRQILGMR

[7] = target: Platelet-derived growth factor receptor alpha (Homo sapiens) (UniProt P16234); experiment: PDGFRalpha (h) Upstate kinase activity assay; settings: Compound concentration 10.0 uM
[8] = target: Protein kinase C alpha type (Homo sapiens) (UniProt P17252); experiment: PKCalpha (h) Upstate kinase activity assay; settings: Compound concentration 10.0 uM
[9] = target: Protein kinase C beta type (Homo sapiens) (UniProt P05771); experiment: PKCBII(h) Upstate kinase activity assay; settings: Compound concentration 10.0 uM
[10] = target: T2, Protein kinase C epsilon type (Homo sapiens) (UniProt Q02156); experiment: PKCepsilon (h) Upstate kinase activity assay; settings: Compound concentration 10.0 uM
T2 sequence (whole entry): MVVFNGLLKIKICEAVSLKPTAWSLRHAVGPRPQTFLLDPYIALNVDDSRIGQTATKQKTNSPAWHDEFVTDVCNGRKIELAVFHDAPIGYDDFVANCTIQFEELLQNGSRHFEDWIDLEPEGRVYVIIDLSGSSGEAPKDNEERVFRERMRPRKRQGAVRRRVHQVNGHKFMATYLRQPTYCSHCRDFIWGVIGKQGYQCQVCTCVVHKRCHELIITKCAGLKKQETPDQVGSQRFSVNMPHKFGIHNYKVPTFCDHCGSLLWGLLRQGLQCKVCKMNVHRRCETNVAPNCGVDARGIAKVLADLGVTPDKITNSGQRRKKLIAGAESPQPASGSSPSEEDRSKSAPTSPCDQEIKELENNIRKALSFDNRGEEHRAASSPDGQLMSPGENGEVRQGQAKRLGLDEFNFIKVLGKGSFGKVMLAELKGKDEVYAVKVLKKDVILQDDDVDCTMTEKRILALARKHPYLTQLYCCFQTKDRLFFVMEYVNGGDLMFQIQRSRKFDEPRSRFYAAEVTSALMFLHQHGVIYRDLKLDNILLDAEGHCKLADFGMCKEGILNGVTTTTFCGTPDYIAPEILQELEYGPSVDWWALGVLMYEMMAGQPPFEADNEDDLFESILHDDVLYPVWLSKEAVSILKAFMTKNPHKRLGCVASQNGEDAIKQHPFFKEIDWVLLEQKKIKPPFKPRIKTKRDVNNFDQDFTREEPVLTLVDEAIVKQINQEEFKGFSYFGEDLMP

[11] = target: T3, Protein kinase C iota type (Homo sapiens) (UniProt P41743); experiment: PKCiota (h) Upstate kinase activity assay; settings: Compound concentration 10.0 uM
T3 sequence (whole entry): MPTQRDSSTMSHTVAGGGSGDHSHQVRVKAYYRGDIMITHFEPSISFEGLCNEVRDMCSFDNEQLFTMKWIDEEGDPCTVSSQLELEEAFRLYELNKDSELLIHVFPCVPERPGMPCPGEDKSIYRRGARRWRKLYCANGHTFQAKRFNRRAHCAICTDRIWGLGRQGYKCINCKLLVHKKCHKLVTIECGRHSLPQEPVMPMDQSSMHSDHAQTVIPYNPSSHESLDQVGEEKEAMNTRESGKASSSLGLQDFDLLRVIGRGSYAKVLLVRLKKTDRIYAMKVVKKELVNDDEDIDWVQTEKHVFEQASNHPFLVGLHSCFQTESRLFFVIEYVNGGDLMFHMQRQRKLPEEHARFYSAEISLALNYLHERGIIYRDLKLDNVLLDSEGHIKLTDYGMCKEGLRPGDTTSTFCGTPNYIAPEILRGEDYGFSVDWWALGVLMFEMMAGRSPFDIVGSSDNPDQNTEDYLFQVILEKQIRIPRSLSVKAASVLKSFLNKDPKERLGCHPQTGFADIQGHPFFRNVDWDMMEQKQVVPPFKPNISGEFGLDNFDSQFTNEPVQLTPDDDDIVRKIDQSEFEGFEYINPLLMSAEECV

[12] = target: Ribosomal protein S6 kinase alpha-2 (Homo sapiens) (UniProt Q15349); experiment: Rsk3 (h) Upstate kinase activity assay; settings: Compound concentration 10.0 uM
[13] = target: Mitogen-activated protein kinase 14 (Homo sapiens) (UniProt Q16539); experiment: SAPK2a (h) Upstate kinase activity assay; settings: Compound concentration 10.0 uM
DLD-1 = experiment: Colon DLD-1 cell line MDS Pharma Services Proliferation Assay; format: functional, cell-based, Homo sapiens
HC-4 = experiment: Liver HC-4 cell line MDS Pharma Services Proliferation Assay; format: functional, cell-based, Homo sapiens
[14] = Melanoma B16-FO cell line MDS Pharma Services Proliferation Assay; format: functional, cell-based
[15] = target: GABA-A receptor; anion channel (Rattus norvegicus) (UniProt O09028+P15431+P18506+P18508+P19969+P20236+P23574+P23576+P28471+P28473+P30191+P62813+P63079+P63138+Q91ZM7+Q9ES14); settings: Compound concentration 10.0 uM

Sequence of Protein kinase C beta type (Homo sapiens) (P05771 2-671 limits assumed): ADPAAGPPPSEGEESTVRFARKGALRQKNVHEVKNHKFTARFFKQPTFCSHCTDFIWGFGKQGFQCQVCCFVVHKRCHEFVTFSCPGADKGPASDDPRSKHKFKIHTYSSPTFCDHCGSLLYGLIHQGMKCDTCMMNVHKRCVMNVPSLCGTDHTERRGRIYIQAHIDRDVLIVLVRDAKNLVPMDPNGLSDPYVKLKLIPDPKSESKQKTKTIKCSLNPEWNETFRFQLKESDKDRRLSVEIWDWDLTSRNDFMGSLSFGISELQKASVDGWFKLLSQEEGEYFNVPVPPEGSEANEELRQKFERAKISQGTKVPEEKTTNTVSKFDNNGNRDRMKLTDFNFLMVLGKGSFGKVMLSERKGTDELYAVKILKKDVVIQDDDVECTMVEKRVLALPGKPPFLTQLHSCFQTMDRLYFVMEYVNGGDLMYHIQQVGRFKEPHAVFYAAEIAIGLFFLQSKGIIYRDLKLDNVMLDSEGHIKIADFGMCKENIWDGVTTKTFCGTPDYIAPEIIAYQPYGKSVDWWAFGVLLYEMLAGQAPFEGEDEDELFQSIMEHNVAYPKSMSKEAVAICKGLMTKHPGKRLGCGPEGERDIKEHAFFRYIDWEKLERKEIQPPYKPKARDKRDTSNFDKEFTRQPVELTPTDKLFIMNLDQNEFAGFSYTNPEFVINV
Sequence of Ribosomal protein S6 kinase alpha-2 (Homo sapiens) (Q15349 whole entry): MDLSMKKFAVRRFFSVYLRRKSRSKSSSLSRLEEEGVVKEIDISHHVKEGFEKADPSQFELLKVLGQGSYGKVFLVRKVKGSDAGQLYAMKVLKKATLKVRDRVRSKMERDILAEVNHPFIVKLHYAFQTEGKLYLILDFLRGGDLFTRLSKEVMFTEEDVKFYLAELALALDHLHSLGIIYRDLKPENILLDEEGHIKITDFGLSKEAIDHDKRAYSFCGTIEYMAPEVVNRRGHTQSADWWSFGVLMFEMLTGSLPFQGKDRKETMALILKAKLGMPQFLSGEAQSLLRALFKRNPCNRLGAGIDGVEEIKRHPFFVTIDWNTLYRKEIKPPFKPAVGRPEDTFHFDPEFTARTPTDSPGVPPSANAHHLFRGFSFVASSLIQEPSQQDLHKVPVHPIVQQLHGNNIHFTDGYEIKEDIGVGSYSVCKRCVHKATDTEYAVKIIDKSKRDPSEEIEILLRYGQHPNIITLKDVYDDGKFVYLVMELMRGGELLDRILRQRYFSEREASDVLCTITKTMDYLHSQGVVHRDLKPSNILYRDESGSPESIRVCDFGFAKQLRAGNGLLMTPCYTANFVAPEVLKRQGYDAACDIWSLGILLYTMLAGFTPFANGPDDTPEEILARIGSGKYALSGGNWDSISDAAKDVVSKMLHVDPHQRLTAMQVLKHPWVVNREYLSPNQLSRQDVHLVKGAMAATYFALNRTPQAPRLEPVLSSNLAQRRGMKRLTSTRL
Sequence of MAP kinase-activated protein kinase 2 (Homo sapiens) (P49137 whole entry, looked up): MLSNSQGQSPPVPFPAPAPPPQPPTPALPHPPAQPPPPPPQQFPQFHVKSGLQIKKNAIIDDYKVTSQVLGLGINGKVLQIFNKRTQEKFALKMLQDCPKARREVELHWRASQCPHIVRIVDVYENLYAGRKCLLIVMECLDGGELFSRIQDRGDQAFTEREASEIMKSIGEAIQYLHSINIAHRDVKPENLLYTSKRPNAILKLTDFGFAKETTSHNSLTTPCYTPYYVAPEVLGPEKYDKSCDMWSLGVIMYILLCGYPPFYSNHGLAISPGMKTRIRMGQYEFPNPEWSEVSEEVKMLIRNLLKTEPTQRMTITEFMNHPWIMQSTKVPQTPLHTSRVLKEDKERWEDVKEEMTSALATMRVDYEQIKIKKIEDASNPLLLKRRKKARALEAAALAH
Sequence of Macrophage colony-stimulating factor 1 receptor (Homo sapiens) (P07333 whole entry): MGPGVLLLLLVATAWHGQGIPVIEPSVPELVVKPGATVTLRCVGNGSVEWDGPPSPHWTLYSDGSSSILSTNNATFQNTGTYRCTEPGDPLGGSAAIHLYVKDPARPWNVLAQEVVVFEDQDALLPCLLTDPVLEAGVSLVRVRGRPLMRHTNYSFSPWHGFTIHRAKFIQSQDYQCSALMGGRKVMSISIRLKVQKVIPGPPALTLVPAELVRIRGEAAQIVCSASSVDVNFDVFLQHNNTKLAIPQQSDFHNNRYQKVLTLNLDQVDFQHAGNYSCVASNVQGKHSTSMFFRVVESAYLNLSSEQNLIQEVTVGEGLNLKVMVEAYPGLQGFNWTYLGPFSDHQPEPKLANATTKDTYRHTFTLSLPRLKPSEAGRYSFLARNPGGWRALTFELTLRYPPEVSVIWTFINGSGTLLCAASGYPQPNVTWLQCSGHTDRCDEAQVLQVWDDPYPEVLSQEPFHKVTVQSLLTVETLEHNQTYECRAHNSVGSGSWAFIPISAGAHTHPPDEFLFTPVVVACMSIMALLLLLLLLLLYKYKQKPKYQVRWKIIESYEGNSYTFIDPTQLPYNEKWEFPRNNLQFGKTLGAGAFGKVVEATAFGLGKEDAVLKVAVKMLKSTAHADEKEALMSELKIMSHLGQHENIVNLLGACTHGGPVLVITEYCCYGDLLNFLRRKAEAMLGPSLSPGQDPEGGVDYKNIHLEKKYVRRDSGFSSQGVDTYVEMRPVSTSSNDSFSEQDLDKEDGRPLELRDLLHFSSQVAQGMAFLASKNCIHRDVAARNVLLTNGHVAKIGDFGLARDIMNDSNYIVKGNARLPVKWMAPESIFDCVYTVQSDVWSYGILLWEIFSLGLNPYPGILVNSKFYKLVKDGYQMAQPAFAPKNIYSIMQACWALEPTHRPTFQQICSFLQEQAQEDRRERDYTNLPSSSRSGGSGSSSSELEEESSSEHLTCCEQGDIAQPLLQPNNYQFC
Sequence of Platelet-derived growth factor receptor alpha (Homo sapiens) (P16234 whole entry): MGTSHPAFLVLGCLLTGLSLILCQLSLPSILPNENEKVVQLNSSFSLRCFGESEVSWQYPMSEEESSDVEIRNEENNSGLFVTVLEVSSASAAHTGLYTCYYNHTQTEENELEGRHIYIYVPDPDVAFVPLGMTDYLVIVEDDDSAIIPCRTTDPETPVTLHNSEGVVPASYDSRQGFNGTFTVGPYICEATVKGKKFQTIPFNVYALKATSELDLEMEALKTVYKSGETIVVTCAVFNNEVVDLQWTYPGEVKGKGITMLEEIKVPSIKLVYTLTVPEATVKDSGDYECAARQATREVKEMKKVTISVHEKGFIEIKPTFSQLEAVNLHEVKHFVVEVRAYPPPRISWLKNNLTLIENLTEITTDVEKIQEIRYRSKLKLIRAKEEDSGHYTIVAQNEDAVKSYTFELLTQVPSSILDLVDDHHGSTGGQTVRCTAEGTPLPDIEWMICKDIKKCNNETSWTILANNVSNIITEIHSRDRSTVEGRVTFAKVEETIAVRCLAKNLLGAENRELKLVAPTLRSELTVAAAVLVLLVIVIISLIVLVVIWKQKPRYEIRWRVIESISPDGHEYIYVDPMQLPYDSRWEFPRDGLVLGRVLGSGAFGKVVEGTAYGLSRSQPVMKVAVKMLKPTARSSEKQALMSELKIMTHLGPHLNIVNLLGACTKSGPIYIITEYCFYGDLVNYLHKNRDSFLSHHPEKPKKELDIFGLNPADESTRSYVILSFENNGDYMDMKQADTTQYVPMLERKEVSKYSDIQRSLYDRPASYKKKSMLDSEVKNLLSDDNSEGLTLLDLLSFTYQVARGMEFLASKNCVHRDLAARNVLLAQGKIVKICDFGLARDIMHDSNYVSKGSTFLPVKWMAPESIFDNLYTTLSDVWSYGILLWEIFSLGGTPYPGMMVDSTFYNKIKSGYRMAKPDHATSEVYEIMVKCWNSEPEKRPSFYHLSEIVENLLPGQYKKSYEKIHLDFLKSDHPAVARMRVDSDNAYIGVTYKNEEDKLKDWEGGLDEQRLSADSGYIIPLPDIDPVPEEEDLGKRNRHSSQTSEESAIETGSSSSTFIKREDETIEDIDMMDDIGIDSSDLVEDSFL
Sequence of Mitogen-activated protein kinase 14 (Homo sapiens) (Q16539 whole entry): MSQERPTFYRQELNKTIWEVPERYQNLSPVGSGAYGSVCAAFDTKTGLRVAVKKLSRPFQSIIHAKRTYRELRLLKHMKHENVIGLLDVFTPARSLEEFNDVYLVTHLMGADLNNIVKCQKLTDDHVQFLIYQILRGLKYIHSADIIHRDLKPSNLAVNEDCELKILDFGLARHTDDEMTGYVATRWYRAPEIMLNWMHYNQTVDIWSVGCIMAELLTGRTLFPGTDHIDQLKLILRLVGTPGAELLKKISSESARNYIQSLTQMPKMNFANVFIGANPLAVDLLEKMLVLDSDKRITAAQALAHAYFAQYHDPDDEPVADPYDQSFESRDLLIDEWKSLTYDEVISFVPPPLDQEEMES
Sequence of Tyrosine-protein kinase Fes/Fps (Homo sapiens) (P07332 whole entry): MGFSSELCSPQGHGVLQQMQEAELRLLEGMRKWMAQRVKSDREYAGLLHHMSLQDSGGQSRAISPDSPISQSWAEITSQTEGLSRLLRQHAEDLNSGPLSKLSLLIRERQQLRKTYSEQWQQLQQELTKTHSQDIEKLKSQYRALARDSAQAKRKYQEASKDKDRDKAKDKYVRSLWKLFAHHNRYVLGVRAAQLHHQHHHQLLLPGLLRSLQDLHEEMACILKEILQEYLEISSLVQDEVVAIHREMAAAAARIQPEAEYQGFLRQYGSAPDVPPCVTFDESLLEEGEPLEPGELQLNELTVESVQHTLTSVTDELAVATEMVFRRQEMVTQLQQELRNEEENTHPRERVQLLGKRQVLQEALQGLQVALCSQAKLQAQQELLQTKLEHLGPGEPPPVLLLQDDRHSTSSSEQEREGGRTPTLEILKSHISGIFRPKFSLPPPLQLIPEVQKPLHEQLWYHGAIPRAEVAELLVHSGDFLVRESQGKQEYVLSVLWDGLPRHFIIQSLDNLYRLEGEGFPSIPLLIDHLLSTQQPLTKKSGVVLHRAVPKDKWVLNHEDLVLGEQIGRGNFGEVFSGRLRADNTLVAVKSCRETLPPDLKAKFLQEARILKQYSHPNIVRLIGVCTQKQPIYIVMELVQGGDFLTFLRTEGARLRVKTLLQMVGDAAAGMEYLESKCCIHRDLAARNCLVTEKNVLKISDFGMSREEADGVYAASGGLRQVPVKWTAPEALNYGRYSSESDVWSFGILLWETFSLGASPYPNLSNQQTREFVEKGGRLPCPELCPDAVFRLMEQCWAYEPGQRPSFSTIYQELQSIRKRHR

## Cc1c[nH]c2nccc(Oc3c(F)cc(Nc4cc(Cl)nc(N)n4)cc3F)c12 [BAY-549]
[1]
  inhibition: 7%
[2]
  inhibition: 28%
[3]
  inhibition: 64%
[4]
  inhibition: 50%
[5]
  inhibition: -6%
[6]
  inhibition: 19%
[7]
  inhibition: 3%
[8]
  inhibition: 6%
[9]
  inhibition: 9%
[10]
  inhibition: 28%
[11]
  inhibition: 18%
[12]
  inhibition: 48%
[13]
  inhibition: 21%
DLD-1
  Mean % growth (n = 2) for 0.01 µM probe concentration: 101%
DLD-1; Homo sapiens, DLD-1
  IC50: 2.4 µM
  TGI: > 100 µM
DLD-1; Homo sapiens, DLD-1, read-out: LC50 (the source's name)
  CC50: > 100 µM
DLD-1; ± SEM 1 % growth
  Mean % growth (n = 2) for 10.0 µM probe concentration: 24%
  Mean % growth (n = 2) for 100.0 µM probe concentration: 5%
DLD-1; ± SEM 2 % growth
  Mean % growth (n = 2) for 0.1 µM probe concentration: 94%
DLD-1; ± SEM 4 % growth
  Mean % growth (n = 2) for 1.0 µM probe concentration: 66%
HC-4; Homo sapiens, HC-4
  IC50: 2.1 µM
  TGI: 13 µM
HC-4; Homo sapiens, HC-4, read-out: LC50 (the source's name)
  CC50: 82 µM
HC-4; ± SEM 1 % growth
  Mean % growth (n = 2) for 0.1 µM probe concentration: 94%
HC-4; ± SEM 5 % growth
  Mean % growth (n = 2) for 0.01 µM probe concentration: 102%
  Mean % growth (n = 2) for 1.0 µM probe concentration: 59%
HC-4; ± SEM 8 % growth
  Mean % growth (n = 2) for 10.0 µM probe concentration: 12%
  Mean % growth (n = 2) for 100.0 µM probe concentration: -56%
[14]; Mus musculus, B16-F10, read-out: LC50 (the source's name)
  CC50: > 100 µM
[14]; ± SEM 1 % growth
  Mean % growth (n = 2) for 1.0 µM probe concentration: 106%
[14]; ± SEM 4 % growth
  Mean % growth (n = 2) for 0.1 µM probe concentration: 94%
[14]; ± SEM 5 % growth
  Mean % growth (n = 2) for 0.01 µM probe concentration: 98%
  Mean % growth (n = 2) for 100.0 µM probe concentration: -46%
[14]; ± SEM 9 % growth
  Mean % growth (n = 2) for 10.0 µM probe concentration: 53%
[15]
  inhibition: -8.68%
